Target: T1, human TGR5 (Homo sapiens, UniProt Q8TDU6)
T1 construct: expressed in transfected cells
T1 sequence (Q8TDU6 1-330): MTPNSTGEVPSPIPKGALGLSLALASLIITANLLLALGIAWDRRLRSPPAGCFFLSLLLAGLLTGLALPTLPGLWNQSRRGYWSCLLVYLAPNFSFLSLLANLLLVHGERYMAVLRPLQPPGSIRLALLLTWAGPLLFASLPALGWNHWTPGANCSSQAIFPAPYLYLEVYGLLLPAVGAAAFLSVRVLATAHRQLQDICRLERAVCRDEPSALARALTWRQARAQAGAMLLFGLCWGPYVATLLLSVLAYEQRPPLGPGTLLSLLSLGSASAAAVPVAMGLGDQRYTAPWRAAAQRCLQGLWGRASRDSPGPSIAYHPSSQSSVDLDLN
Test: cAMP production assay in HEK293 cells stably expressing TGR5 (LANCE TR-FRET)
Format: cell-based
Details: 30 minutes stimulation, read-out: cAMP Production in 293-TGR5 Cells EC50
Procedure: HEK293 cells stably expressing TGR5 (HEK293-TGR5) were established by stably transfecting HEK-293 cells with an expression vector (pcDNA 3.1, Invetrogen) inserted with human TGR5 cDNA using Fugene6 (Roche, Indianapolis, Ind.) according to conventional methods. Cells were grown in DMEM (invitrogen, Carlsbad, Calif.) supplemented with 10% FBS, 1% penicillin/streptomycin under geneticin selection. The presence of TGR5 transcripts in these cells was confirmed using branched DNA (bDNA, Genospectra, Inc., Fremont Calif.) following the manufacturer's protocol and using specific probes for human TGR5. cAMP production assay was performed in high throughput 1536 well format using LANCE cAMP detection kit (Perkin Elmer Inc., Boston, Mass.) according to the manufacturer's protocol. Briefly, HEK293-TGR5 cells were harvested using non-enzymatic cell dissociation buffer (Invitrogen, Carlsbad, Calif.) and suspended in DMEM supplemented with 0.1% FBS at a density of 800,000 cells/ml. Alexa antibody was added to the cell suspension, and 4 ul of the mixture was dispensed in white opaque tissue culture treated Greiner 1536 well plates (USA Scientific, Inc., Ocala, Fla.). After an overnight incubation at 37 C in an atmosphere of 10% CO2 and 95% humidity, 1 ul of 5 mM IBMX (Sigma, St. Louis, Mo.) solution in DMEM was dispensed for a final concentration of 1 mM. Cells were then stimulated with test compounds for 30 minutes, after which time 5 ul of detection reagent was added and incubated for 1-7 hrs at room temperature. TR-FRET signal was detected using the Viewlux (Perkin Elmer Inc., Boston Mass.). EC50 values were determined using Graph Pad Prizm analysis (GraphPad Software, Inc). The EC50 values for a wide range of bile acids generated from this assay were in agreement with the values published in the scientific literature. […] The symbol (+) denotes an EC50 value of ≦10 μM while the symbol (−) denotes an EC50 value of >10 μM (see Table 1).

Structure (SMILES) | EC50 [µM]
CC(C)c1ccc(CNn2c(-c3ccc(F)cc3)nc3ccccc3c2=O)cc1 [Example 2, 2-(4-fluorophenyl)-3-(4-isopropylbenzylamino)quinazolin-4(3H)-one] | > 10
O=c1c2ccccc2nc(-c2ccccc2F)n1NCc1ccc(Br)cc1 [Example 5, 3-(4-bromobenzylamino)-2-(2-fluorophenyl)quinazolin-4(3H)-one] | ≤ 10
O=c1c2ccccc2nc(-c2ccccc2)n1NCc1ccccc1 [Example 6, 3-(benzylamino)-2-phenylquinazolin-4(3H)-one] | ≤ 10
O=c1c2ccccc2nc(-c2ccccc2C(F)(F)F)n1NCc1ccc(Br)cc1 [Example 8, 3-(4-bromobenzylamino)-2-(2(trifluoromethyl)phenyl)quinazolin-4(3H)-one] | ≤ 10
O=c1c2ccccc2nc(-c2ccc(C(F)(F)F)cc2)n1NCc1ccc(Br)cc1 [Example 9, 3-(4-bromobenzylamino)-2-(4-(trifluoromethyl)phenyl)quinazolin-4(3H)-one] | ≤ 10
O=c1c2ccccc2nc(-c2ccccc2F)n1NCc1ccc(F)cc1F [Example 12, 3-(2,4-difluorobenzylamino)-2-(2-fluorophenyl)quinazolin-4(3H)-one] | ≤ 10
Cc1ccccc1-c1nc2ccccc2c(=O)n1NCc1ccc(Br)cc1 [Example 15, 3-(4-bromobenzylamino)-2-o-tolylquinazolin-4(3H)-one] | ≤ 10
O=c1c2ccccc2nc(-c2ccccc2F)n1NCc1ccc(C(F)(F)F)cc1 [Example 17, 2-(2-fluorophenyl)-3-(4-(trifluoromethyl)benzylamino)quinazolin-4(3H)-one] | ≤ 10
O=c1c2ccccc2nc(-c2ccccc2F)n1NCc1cccc(Cl)c1 [Example 18, 3-(3-chlorobenzylamino)-2-(2-fluorophenyl)quinazolin-4(3H)-one] | ≤ 10
O=c1c2ccccc2nc(-c2ccccc2F)n1NCc1ccc(C(F)(F)F)c(F)c1 [Example 21, 3-(3-fluoro-4-(trifluoromethyl)benzylamino)-2-(2-fluorophenyl)quinazolin-4(3H)-one] | ≤ 10
Cc1ccc(CNn2c(-c3ccccc3F)nc3ccccc3c2=O)cc1 [Example 22, 2-(2-fluorophenyl)-3-(4-methylbenzylamino)quinazolin-4(3H)-one] | ≤ 10
O=c1c2ccccc2nc(-c2ccccc2F)n1NCc1ccc(OC(F)(F)F)cc1 [Example 23, 2-(2-fluorophenyl)-3-(4-(trifluoromethoxy)benzylamino)quinazolin-4(3H)-one] | ≤ 10
Cc1ccc2c(=O)n(NCc3ccc(Br)cc3)c(-c3ccccc3F)nc2c1 [Example 24, 3-(4-bromobenzylamino)-2-(2-fluorophenyl)-7-methylquinazolin-4(3H)-one] | ≤ 10
Cc1ccc2c(=O)n(NCc3ccc(F)cc3F)c(-c3ccccc3F)nc2c1 [Example 25, 3-(2,4-difluorobenzylamino)-2-(2-fluorophenyl)-7-methylquinazolin-4(3H)-one] | ≤ 10
COc1ccc2nc(-c3ccccc3F)n(NCc3ccc(F)cc3F)c(=O)c2c1 [Example 27, 3-(2,4-difluorobenzylamino)-2-(2-fluorophenyl)-6-methoxy quinazolin-4(3H)-one] | ≤ 10
O=c1c2ccc(C(F)(F)F)cc2nc(-c2ccccc2F)n1NCc1ccc(Br)cc1 [Example 28, 3-(4-bromobenzylamino)-2-(2-fluorophenyl)-7-(trifluoromethyl)quinazolin-4(3H)-one] | > 10
O=c1c2ccc(C(F)(F)F)cc2nc(-c2ccccc2F)n1NCc1ccc(F)cc1F [Example 29, 3-(2,4-difluorobenzylamino)-2-(2-fluorophenyl)-7-(trifluoromethyl)quinazolin-4(3H)-one] | > 10
O=c1c2ccc(C(F)(F)F)cc2nc(-c2ccccc2F)n1NCc1ccc(Cl)cc1 [Example 30, 3-(4-chlorobenzylamino)-2-(2-fluorophenyl)-7-(trifluoromethyl)quinazolin-4(3H)-one] | > 10
O=c1c2ccccc2nc(-c2ccccn2)n1NCc1ccc(Br)cc1 [Example 31, 3-(4-bromobenzylamino)-2-(pyridin-2-yl)quinazolin-4(3H)-one] | ≤ 10
COc1ccc2c(=O)n(NCc3ccc(Br)cc3)c(-c3ccc(F)cc3)nc2c1 [Example 33, 3-(4-bromobenzylamino)-2-(4-fluorophenyl)-7-methoxyquinazolin-4(3H)-one] | > 10
COc1ccc2c(=O)n(NCc3ccc(F)cc3F)c(-c3ccc(F)cc3)nc2c1 [Example 34, 3-(2,4-difluorobenzylamino)-2-(4-fluorophenyl)-7-methoxy quinazolin-4(3H)-one] | > 10
O=c1c2ccccc2nc(-c2ccc(F)cc2)n1NCc1ccc2ccccc2c1 [Example 38, 2-(4-fluorophenyl)-3-(naphthalen-2-ylmethylamino)quinazolin-4(3H)-one] | ≤ 10

Continued, values first:

EC50 [µM] | Structure (SMILES)
≤ 10 | O=c1c2ccccc2nc(-c2ccccc2F)n1NCc1cccc(Br)c1 [Example 3, 3-(3-bromobenzylamino)-2-(2-fluorophenyl)quinazolin-4(3H)-one]
≤ 10 | O=c1c2ccccc2nc(-c2ccccc2F)n1NCc1ccc(Cl)cc1Cl [Example 4, 3-(2,4-dichlorobenzylamino)-2-(2-fluorophenyl)quinazolin-4(3H)-one]
≤ 10 | O=c1c2ccccc2nc(-c2cccc(F)c2)n1NCc1ccc(F)cc1F [Example 7, 3-(2,4-difluorobenzylamino)-2-(3-fluorophenyl)quinazolin-4(3H)-one]
≤ 10 | O=c1c2ccccc2nc(-c2ccccc2Cl)n1NCc1ccc(Br)cc1 [Example 10, 3-(4-bromobenzylamino)-2-(2-chlorophenyl)quinazolin-4(3H)-one]
> 10 | CC(C)(C)c1ccc(CNn2c(-c3ccccc3F)nc3ccccc3c2=O)cc1 [Example 11, 3-(4-tert-butylbenzylamino)-2-(2-fluorophenyl)quinazolin-4(3H)-one]
≤ 10 | O=c1c2ccccc2nc(-c2ccccc2F)n1NCc1cc(F)cc(F)c1 [Example 13, 3-(3,5-difluorobenzylamino)-2-(2-fluorophenyl)quinazolin-4(3H)-one]
≤ 10 | O=c1c2ccccc2nc(-c2ccccc2F)n1NCc1ccc(F)c(F)c1 [Example 14, 3-(3,4-difluorobenzylamino)-2-(2-fluorophenyl)quinazolin-4(3H)-one]
≤ 10 | O=c1c2ccccc2nc(CCc2ccccc2)n1NCc1ccc(F)cc1F [Example 16, 3-(2,4-difluorobenzylamino)-2-phenethylquinazolin-4(3H)-one]
> 10 | COc1ccccc1-c1nc2ccccc2c(=O)n1NCc1ccc(Br)cc1 [Example 19, 3-(4-bromobenzylamino)-2-(2-methoxyphenyl)quinazolin-4(3H)-one]
≤ 10 | O=c1c2ccccc2nc(-c2ccccc2F)n1NCc1cccc(C(F)(F)F)c1 [Example 20, 2-(2-fluorophenyl)-3-(3-(trifluoromethyl)benzylamino)quinazolin-4(3H)-one]
> 10 | COc1ccc2nc(-c3ccccc3F)n(NCc3ccc(Br)cc3)c(=O)c2c1 [Example 26, 3-(4-bromobenzylamino)-2-(2-fluorophenyl)-6-methoxy quinazolin-4(3H)-one]
≤ 10 | N#Cc1ccc(CNn2c(-c3ccc(F)cc3)nc3ccccc3c2=O)cc1 [Example 32, 4-((2-(4-fluorophenyl)-4-oxoquinazolin-3(4H)-ylamino)methyl)benzonitrile]
> 10 | COc1ccc2c(=O)n(NCc3ccc(Cl)cc3)c(-c3ccc(F)cc3)nc2c1 [Example 35, 3-(4-chlorobenzylamino)-2-(4-fluorophenyl)-7-methoxyquinazolin-4(3H)-one]
> 10 | COc1ccc2c(=O)n(NCc3ccc(C(F)(F)F)cc3)c(-c3ccc(F)cc3)nc2c1 [Example 36, 2-(4-fluorophenyl)-7-methoxy-3-(4-(trifluoromethyl)benzylamino)quinazolin-4(3H)-one]
> 10 | O=c1c2ccccc2nc(-c2ccc(F)cc2)n1NCc1cccnc1 [Example 37, 2-(4-fluorophenyl)-3-(pyridin-3-ylmethylamino)quinazolin-4(3H)-one]
≤ 10 | O=c1c2ccccc2nc(-c2ccco2)n1NCc1ccc(Br)cc1 [Example 40, 3-(4-bromobenzylamino)-2-(furan-2-yl)quinazolin-4(3H)-one]
